Reference: patent US20030134901A1, “Lipoxin compounds and their use in treating cell proliferative disorders” (priority 1993, published 2003)

Legend:
human skin fibroblasts = assay: Fibroblast proliferation, MTT assay; type: cell-based; conditions: Homo sapiens, Skin fibroblast; 100 nM, n=3
Excerpt: Human type II epithelial A549 cells from human lung carcinoma and normal human skin fibroblast (breast) were obtained from the American Type Culture Collection (Rockville, Md.). The A549 cell line originated from a human alveolar cell carcinoma and was a useful cell line because it was easily assessable and could be maintained in culture without contaminating tissue macrophages. (Lieber, M., et al (1976) A continuous tumor-cell line from a human lung carcinoma with properties of type II alveolar epithelial cells. Int. J Cancer Fibroblasts were utilized within their limited window of viability and their passage numbers were recorded (results are reported for cells from 3-5 passages). Epithelial A549 cells were seeded into T-75 cm^2 tissue culture flasks and maintained in F-12K medium supplemented with 10% heat-inactivated FBS, penicillin (50 U/mL) and streptomycin (50 (g/mL). Human PMN from healthy donors who had not taken ASA or other medications for at least two weeks were obtained by Ficoll-Hypaque gradient centrifugation and dextran sedimentation, (Böyum A. (1968) Isolation of mononuclear cells and granulocytes from human blood. […] Viability of A549 cells and PMN was determined by their ability to exclude trypan blue and were 95±2 and 97±1%, respectively.
A microculture 3,(4,5-dimethylthiazoyl-2-yl) 2,5 (diphenyl-tetrazolium bromide) (MTT) assay, (Marshall, N. J., et al. (1995) A critical assessment of the use of microculture tetrazolium assays to measure cell growth and function. Growth Regul. 5: 69-84.), was used to examine the actions of LXs and other eicosanoids on cell proliferation. A549 cells and fibroblasts from exponential-phase maintenance cultures were counted and dispensed within replicate 96-well culture plates in 100 μl volumes of medium (˜2000 cells/well). […] Dye solution was aspirated, wells were washed once with HBSS and dye taken up by the cells was extracted in 100 μl of isopropyl alcohol:1 N HCl (96:4, v/v) and quantitated at 570 nm using a microplate reader (Molecular Devices, Menlo Park, Calif.). […]

A549 cells = assay: A549 cell proliferation, MTT assay; type: cell-based, human; conditions: Homo sapiens, A549
Experimental: A microculture 3,(4,5-dimethylthiazoyl-2-yl) 2,5 (diphenyl-tetrazolium bromide) (MTT) assay, (Marshall, N. J., et al. (1995) A critical assessment of the use of microculture tetrazolium assays to measure cell growth and function. Growth Regul. 5: 69-84.), was used to examine the actions of LXs and other eicosanoids on cell proliferation. A549 cells and fibroblasts from exponential-phase maintenance cultures were counted and dispensed within replicate 96-well culture plates in 100 μl volumes of medium (˜2000 cells/well). Following 24 hours at 37° C., the culture medium was removed, and fresh medium (100 μl) containing either the compounds (5-1000 nM) or vehicle (medium plus 0.15% ethanol) was added to 4 replicates for each condition studied and the culture plates were then incubated for up to 96 hours at 37° C. in a 5% CO2 atmosphere. At the end of this period, 25 μl of freshly prepared MTT in HBSS (5 mg/ml) was added to the wells and the plates were incubated for 4 hours at 37° C. Dye solution was aspirated, wells were washed once with HBSS and dye taken up by the cells was extracted in 100 μl of isopropyl alcohol:1 N HCl (96:4, v/v) and quantitated at 570 nm using a microplate reader (Molecular Devices, Menlo Park, Calif.). In some experiments, cells were grown in 12-well culture plates, treated as above and enumerated using a Neubauer hemocytometer. Viability was assessed routinely using trypan blue exclusion assay. For the A549 cells and fibroblasts, a linear relation was established for the MTT values and cell number within the range of the experiments shown (r=0.995, P<0.005). A549 cells grown for 72 hours in the presence of the compounds (5-1000 nM) or vehicle (0.15% EtOH) were lysed with 0.25 N NaOH and the cellular protein content was determined by applying the Bio-Rad (Richmond, Calif.) microassay method using bovine serum albumin as standard. The mean cellular protein content in resting A549 cells was 46.6±1.5 pg/cell.

[1] = test system: PLD activity in human PMN; assay: PLD activity (PEt formation) in PMN; type: cell-based; conditions: PMN; IAP at LXA4 10^−9-10^−10 M, staurosporine (100 nM) at LXA4 10^−7 M
Experimental: PMN, platelet and RBC isolation from peripheral blood. Human PMN were obtained by the modified Böyum method (Böyum, A. (1968) Scan. J. Clin. Lab. Invest. 21:77) from fresh heparinized blood after venipuncture of healthy normal volunteers. Suspensions in PBS were monitored for cell number and viability by their ability to exclude trypan blue both exceeding 98%. Red blood cells were obtained from 10 ml of heparinized blood after three centrifugations in PBS (2,500 rpm, 10 min at 21° C.). Blood drawn in acidic citrate dextrose (9:1, v/v) was used to isolate platelets as previously described (Serhan, C. N. and Sheppard, K.-A. (1990) J. Clin. Invest. 85:772). PLD activity. Human PMN and HL-60 cells (50×10^6 cells/ml) prepared as above were incubated with ^3H-myristic acid or ^3H-palmitic acid (8 μCi/50×10^6 cells) for 40-60 min at 37° C. in PBS. […] Incubations were carried out at 37° C. (10 ×10^6 cells/ml PBS). […] M. et al. (1989) J. Biol. Chem. 264:17069. At indicated times, incubations were stopped by adding 3.5 ml of ice cold CHCl3/MeOH (2/5, v/v) containing 1-^14C-arachidonic acid (5,000 cpm) used here as internal standard to quantitate extraction recoveries. Samples were extracted using a modified Bligh and Dyer extraction as in (Serhan, C. N. and Sheppard, K. -A. (1990) J. Clin. Invest. 85:772). Organic phases, concentrated in 50 μL of CHCl3/MeOH (8/2, v/v), were spotted onto linear […] TLC plates developed with the organic phase of ethyl acetate[…][…] (110/50/20/100, v/v/v/v) for 50 min ([…]. et al.(1989) J. Biol. Chem. 264:17069). […] Regions corresponding to PA, PEt, and internal standards were scraped and quantified by liquid scintillation counting. […] In these experiments, PA was resolved using ethyl acetate[…][…]) as solvent system ([…]. et al. (1989) Anal. […] Impact of IAP and staurosporine on LXA4-induced PLD activity. PLD activity assays, performed as described (vide supra), were preceded by cell exposure to either IAP or staurosporine. […]

[2] = test system: PLD activity in differentiated HL-60 cells; assay: PLD activity (PEt formation) in differentiated HL-60 cells; type: cell-based, human; conditions: HL-60 cells; IAP (300 ng/ml) at LXA4 10^−9-10^−10 M, staurosporine (100 nM) at LXA4 10^−7 M
Experimental: Cell cultures and differentiation. HL-60 cells were seeded in RPMI medium supplemented with 100 U/ml penicillin, 100 μg/ml streptomycin, and 10% fetal calf serum (Hyclone, Logan, Utah), incubated at 37° C. with 5% CO2 atmosphere in 250 ml flasks. Individual flasks containing ˜[…] next received dimethyl sulfoxide (DMSO) (1.12% v/v, 120 h) or retinoic acid (RA) (1 μM, 120 h) or phorbol myristate acetate (PMA) (20 nM, 48 h). Before performing binding assays, cells were washed twice in phosphate buffered saline (PBS), Ca^2+- and Mg^2+-free, enumerated and suspended at 20×10^6 cells/ml in Tris buffer (10 mM), pH 7.4 (Fiore, S. et al.(1992) J. Biol. Chem. 267:16168). Nitro blue tetrazolium reduction was performed to monitor induction of polymorphonuclear phenotype as in (Imaizumi, M. and Breitman, T. R. (1986) Blood 67:1273), and cell adherence was determined for induction of macrophage-like phenotype (Collins, S. J. (1987) Blood 70:1273). Human umbilical vein endothelial cells (HUVEC) maintained in culture third passage were obtained from Dr. M. Gimbrone (Brigham and Women's Hospital Department of Pathology).
PLD activity. Human PMN and HL-60 cells (50×10^6 cells/ml) prepared as above were incubated with ^3H-myristic acid or ^3H-palmitic acid (8 μCi/50×10^6 cells) for 40-60 min at 37° C. in PBS. Cell uptake ranged between 60-80% of added label, 7.1±4.2% (n=10; mean ±S.D.) and 32.6±10.3% (n=6; mean ±S.D.) into total phospholipid classes of PMN and HL-60 cells, respectively. Incubations were carried out at 37° C. (10 ×10^6 cells/ml PBS). […] At indicated times, incubations were stopped by adding 3.5 ml of ice cold CHCl3/MeOH (2/5, v/v) containing 1-^14C-arachidonic acid (5,000 cpm) used here as internal standard to quantitate extraction recoveries. […] Regions corresponding to PA, PEt, and internal standards were scraped and quantified by liquid scintillation counting. […] All values reported for PEt formation in Tables 4 and 5 were calculated by subtracting the dpm obtained in the presence of […]. […]

## C[C@@H]1C[C@H]2[C@@H]3CCC4=CC(=O)C=C[C@]4(C)[C@@]3(F)[C@@H](O)C[C@]2(C)[C@@]1(O)C(=O)CO [Dexamethasone]
Human skin fibroblasts
  inhibition at 0.1 µM: 29.7%
A549 cells; 10^−7 M, 72 hours at 37° C., mean ± SEM, 3 to 7 experiments
  inhibition at 0.1 µM: 42.1 ± 5.4%
A549 cells; MTT assay, 72 hours, read-out: half maximum inhibition (IC50) of A549 cell proliferation
  IC50: ~7 nM

## CN[C@@H]1C[C@H]2O[C@@](C)([C@@H]1OC)n1c3ccccc3c3c4c(c5c6ccccc6n2c5c31)C(=O)NC4 [staurosporine]
[1]
  effect on LXA4-mediated PLD activity: inhibited by staurosporine
[2]
  effect on LXA4-mediated PLD activity: inhibited by staurosporine

## IAP: Islet activating protein
[1]
  effect on LXA4-mediated PLD activity: sensitive to IAP treatment
[2]
  effect on LXA4-mediated PLD activity: sensitive to IAP treatment
